Source: patent publication US20230372382A1, “USE OF ADENOSINE DIPHOSPHATE RIBOSE FOR ADJUVANT THERAPY WITH RADIATION AND/OR ANTI-CANCER TREATMENT” (PearlsInMires Co., Ltd., priority 2021, published 2023)

How the values were obtained:
[1] = test system: Colon cancer (HCT116) cells; test: Cell death by combination treatment with anti-cancer drug (MTT); format: cell-based; conditions: Homo sapiens, HCT-116; HCT116, 5-FU 10 μM alone, 24 hours; read-out: cancer cells survived (cell viability)
[2] = test system: Pancreatic cancer (AsPC-1) cells; test: as above; format: cell-based; conditions: Homo sapiens, ASPC1, 24 h; read-out: cancer cells survived (cell viability)
[3] = test system: Lung cancer (H1975) cells; test: as above; format: cell-based; conditions: Homo sapiens, NCI-H1975; H1975, osimertinib 1 nM alone, 24 hours; read-out: cancer cells survived (cell viability)
[4] = test system: Lung cancer (H1975) cells; test: Xenograft model, combination with anti-cancer drug, tumor volume; format: in vivo, BALB/c nude mice; conditions: osimertinib 1 mg/kg oral twice a week alone
Procedure: (§1) Brain (U-87MG), lung (H1975), pancreatic (AsPC-1), or liver (Hep G2) cells (1×10^7 cells) were inoculated into 5-week-old BALB/c nude mice on the back flank, respectively. Then, when tumors were grown to a volume of approximately 150 mm^3, the mice were divided into the control group (control), an anti-cancer drug alone treatment group, and a combination treatment group. […] The tumor size was measured every 6 days using a digital caliper, and the results of changes in tumor volume were compared by the group.
Lung cancer (H1975) cells (1×10^7) were inoculated into 5-week-old BALB/c nude mice on the back flank, and the mice were divided into three groups: the control group (Control), single oral administration of 1 mg/kg of osimertinib, and combination administration of osimertinib+10 mg/kg of ADP-ribose. When the tumors were grown to a volume of approximately 150 mm^3, osimertinib was administered orally twice a week, and ADP-ribose at 10 mg/kg was injected subcutaneously 3 times a week. The tumor size was measured using a digital caliper, and the results of changes in tumor volume were compared by the group.

[5] = test system: Liver cancer (Hep G2) cells; test: as above; format: in vivo, BALB/c nude mice; conditions: sorafenib 10 mg/kg oral 5 times a week alone
Procedure: as §1
Liver cancer (Hep G2) cells (1×10^7) were inoculated into 5-week-old BALB/c nude mice on the back flank, and the mice were divided into three groups: the control group (Control), single oral administration of 10 mg/kg of sorafenib, and combination administration of sorafenib+10 mg/kg of ADP-ribose. When the tumors were grown to a volume of approximately 150 mm^3, sorafenib was administered orally 5 times a week, and ADP-ribose at 10 mg/kg was injected subcutaneously 3 times a week. The tumor size was measured using a digital caliper, and the results of changes in tumor volume were compared by the group.

[6] = test system: Liver cancer (Hep G2) cells; test: Cell death by combination treatment with anti-cancer drug (MTT); conditions: Homo sapiens, HepG2, 24 h, read-out: cancer cells survived (cell viability)
[7] = test system: Brain cancer (U-87MG) cells; test: Xenograft model, combination with anti-cancer drug, tumor volume; format: in vivo, BALB/c nude mice; conditions: U-87MG xenograft, Avastin 25 mg/kg intraperitoneal twice a week alone
Procedure: as §1
Brain cancer (U-87MG) cells (1×10^7) were inoculated into 5-week-old BALB/c nude mice on the back flank, and the mice were divided into three groups: the control group (Control), single intraperitoneal administration of 25 mg/kg of Avastin (ingredient name: bevacizumab), and combination administration of Avastin+10 mg/kg of ADP-ribose. When the tumors were grown to a volume of approximately 150 mm^3, Avastin was administered intraperitoneally twice a week, and ADP-ribose at 10 mg/kg was injected subcutaneously 3 times a week. The tumor size was measured using a digital caliper, and the results of changes in tumor volume were compared by the group.

For `O=c1[nH]cc(F)c(=O)[nH]1` [5-FU, 5-fluorouracil, reference compound], the viability at 10 µM [1] was about 51%.

`Nc1ccn([C@@H]2O[C@H](CO)[C@@H](O)C2(F)F)c(=O)n1` [gemcitabine, reference compound] showed a viability at 1 µM [2] of about 54%.

With `C=CC(=O)Nc1cc(Nc2nccc(-c3cn(C)c4ccccc34)n2)c(OC)cc1N(C)CCN(C)C` [osimertinib, reference compound] the viability at 0.001 µM [3] was about 50%, the “final tumor volume lower than that of the control group” value (shortened to “final tumor volume lower than that”) [4] was “about 17%” and the final tumor volume ([4]; control about 2265.5) was “about 1881.9 mm^3”.

With `CNC(=O)c1cc(Oc2ccc(NC(=O)Nc3ccc(Cl)c(C(F)(F)F)c3)cc2)ccn1` [sorafenib, reference compound] the “final tumor volume lower than that” value [5] was “about 20%”, the final tumor volume ([5]; control about 2322.4) was “about 1849.8 mm^3” and the viability at 1 µM [6] was about 49%.

For “bevacizumab: anti-VEGF monoclonal antibody; Avastin (ingredient name: bevacizumab) [reference compound]”, the “final tumor volume lower than that” value [7] was “about 37%” and the final tumor volume ([7]; control about 2527.1) was “about 1598.9 mm^3”.
